Literature values, collected in publication PMC7466129, “Solid Lipid Nanoparticles for Duodenum Targeted Oral Delivery of Tilmicosin” (Pharmaceutics, 2020).
In brackets after ≈: the same amount, converted by molar mass.

Assays:
[1] = set-up: method as in PMID 31614726; conditions: 100 °C, 30 min
[2] = test system: Actinobacillus pleuropneumoniae; set-up: method as in PMID 29139136
Mycoplasma = test system: Mycoplasma; set-up: method as in PMID 29149886

CC[C@H]1OC(=O)C[C@@H](O)[C@H](C)[C@@H](O[C@@H]2O[C@H](C)[C@@H](O)[C@H](N(C)C)[C@H]2O)[C@@H](CCN2C[C@H](C)C[C@H](C)C2)C[C@@H](C)C(=O)/C=C/C(C)=C/[C@@H]1CO[C@@H]1O[C@H](C)[C@@H](O)[C@@H](OC)[C@H]1OC [tilmicosin, Tilmicosin]
saturation solubility in carnauba wax [1]: 50%
saturation solubility in hydrogenated castor oil [1]: 25%
minimum inhibitory concentration (MIC) [2]: 0.5 µg/mL (≈ 0.575 µM)
minimum inhibitory concentration (MIC) (Mycoplasma): ≤ 0.25 µg/mL
